Laboratory results reported in ChEMBL document CHEMBL1133113, “Fast calculation of molecular polar surface area as a sum of fragment-based contributions and its application to the prediction of drug transport properties” (J Med Chem, 2000).

Assay: Percent of drug absorbed by human intestine after oral administration
Format: ADME, organism-based
Details: in vivo

Structure (SMILES) | Fa [%]
O=C(O)c1cc(/N=N/c2ccc(O)c(C(=O)O)c2)ccc1O [OLSALAZINE] | 2.3
OC[C@@H](O)[C@@H](O)[C@H](O)[C@H](O)CO [MANNITOL] | 26
O=C(O)c1cc(/N=N/c2ccc(S(=O)(=O)Nc3ccccn3)cc2)ccc1O [SULFASALAZINE] | 12
OC[C@H]1O[C@@H](O[C@@H]2[C@@H](CO)O[C@](O)(CO)[C@H]2O)[C@H](O)[C@@H](O)[C@H]1O [LACTULOSE] | 0.6
CC(=O)Nc1ccc(OCC(O)CNC(C)C)cc1 (centres undefined) [PRACTOLOL] | 95
C=CCOc1ccccc1OCC(O)CNC(C)C (centres undefined) [OXPRENOLOL] | 97
Cc1cc(=O)n(-c2ccccc2)n1C [ANTIPYRINE] | 97
CC(C)NCC(O)COc1cccc2[nH]ccc12 (centres undefined) [PINDOLOL] | 92
O=C(O)P(=O)(O)O [FOSCARNET] | 17
OC[C@H]1O[C@H](OC[C@H]2O[C@H](O[C@]3(CO)O[C@H](CO)[C@@H](O)[C@@H]3O)[C@H](O)[C@@H](O)[C@@H]2O)[C@H](O)[C@@H](O)[C@H]1O [RAFFINOSE] | 0.3
CCN1CCCC1CNC(=O)c1cc(S(N)(=O)=O)ccc1OC (centres undefined) [SULPIRIDE] | 36
NC[C@H]1CC[C@H](C(=O)O)CC1 [TRANEXAMIC ACID] | 55
Cc1ccccc1N1C(=O)c2cc(S(N)(=O)=O)c(Cl)cc2NC1C (centres undefined) [METOLAZONE] | 64
C=CCc1ccccc1OCC(O)CNC(C)C (centres undefined) [ALPRENOLOL] | 96
